From US12195490B2, “STRAD-binding agents and uses thereof” (The Regents of the University of California, priority 2020, dated 2025)

Each compound was assayed on ACHN cell line (assay: drug screen of the SelleckChem kinase inhibitor library with and without 5 uM SU-329, Cell-Titer Glo after 5 days). Conditions: kinase inhibitor at 200 nM with and without 5 uM SU329; ACHN cell line; 5 days; Cell-Titer Glo.
Type: cell-based

Row | Compound | log2fc
1 | CN(C)Cc1cccc(N/C(=C2\C(=O)Nc3cc(C(=O)N(C)C)ccc32)c2ccccc2)c1 [BIX 02189] | −0.08248
2 | PF-477736 | −2.035
3 | Cc1cn(-c2cc(NC(=O)c3ccc(C)c(Nc4nccc(-c5cccnc5)n4)c3)cc(C(F)(F)F)c2)cn1 [Nilotinib (AMN-107)] | 0.331
4 | KN-62 | −0.07258
5 | O=C(NC[C@H](O)CO)c1ccncc1Nc1ccc(I)cc1F [Pimasertib (AS-703026), AS703026, reference compound] | 0.3252
6 | CCC[C@H](NC(=O)/C(C#N)=C/c1cccc(Br)n1)c1ccccc1 [Degrasyn (WP1130)] | −0.132
7 | COc1cc2ncnc(Nc3ccc(F)c(Cl)c3)c2cc1NC(=O)/C=C/CN1CCCCC1 [Dacomitinib (PF299804, PF299)] | 0.3997
8 | N#C/C(=C(/N)Sc1ccc(N)cc1)c1ccccc1C(F)(F)F [SL-327] | −0.2882
9 | CS(=O)(=O)c1cccc(CNc2nc(Nc3ccc4c(c3)CCC(=O)N4)ncc2C(F)(F)F)c1 [PF-573228] | 0.4325
10 | Oc1ccc(-c2nc(-c3ccc(F)cc3)c(-c3ccncc3)[nH]2)cc1 [SB202190 (FHPI)] | −0.3986
11 | CNC(=O)c1nn(C)c2c1C(C)(C)Cc1cnc(Nc3ccc(N4CCN(C)CC4)cc3)nc1-2 [Milciclib (PHA-848125)] | 0.9986
12 | CC(C)(C)c1cnc(CSc2cnc(NC(=O)C3CCNCC3)s2)o1 [SNS-032 (BMS-387032)] | −1.028
13 | CN1CCN(Cc2ccc(-c3cnc4[nH]cc(-c5ccc6[nH]ccc6c5)c4c3)cc2)CC1 [URMC-099] | 0.3515
14 | COc1ccc(-c2nc(N3CCOCC3)c3sc(CN(C)c4ncc(C(=O)NO)cn4)cc3n2)cn1 [CUDC-907] | 0.5895
15 | CCc1cnn2c(NCc3ccc[n+]([O-])c3)cc(N3CCCC[C@H]3CCO)nc12 [Dinaciclib (SCH727965)] | 1.402
16 | N#Cc1c(NC(=O)c2cccc3ccccc23)sc2c1CCCC2 [JNK Inhibitor IX] | 0.1814
17 | OCCn1cc(-c2ccc3c(c2)CC/C3=N\O)c(-c2ccncc2)n1 [GDC-0879] | 0.3592
18 | COc1cc2nccc(Oc3ccc(NC(=O)Nc4ccc(F)cc4F)c(F)c3)c2cc1OC [Ki8751] | 0.1011
19 | O=C(NC1CCNCC1)c1n[nH]cc1NC(=O)c1c(Cl)cccc1Cl [AT7519] | −1.085
20 | Cc1cnc(NC(=O)Nc2cc(Br)c(C)cc2OC[C@@H]2CNCCO2)cn1 [LY2603618] | −0.1739
21 | CN1CCN(CCOc2cc(OC3CCOCC3)c3c(Nc4c(Cl)ccc5c4OCO5)ncnc3c2)CC1 [Saracatinib (AZD0530)] | 0.4009
22 | COc1cc2ncnc(Nc3ccc(Cl)cc3F)c2cc1OC [ZM 306416] | 0.5807
23 | COc1ccc(-c2ccc3c(N4CCOCC4)nc(N4C[C@@H](C)O[C@@H](C)C4)nc3n2)cc1CO [KU-0063794] | −1.551
24 | Nc1ncnc2c1c(-c1cnc3[nH]ccc3c1)nn2C1CCCC1 [PP121] | −0.5206
25 | Cc1cc(Nc2cc(N3CCN(C)CC3)nc(Sc3ccc(NC(=O)C4CC4)cc3)n2)n[nH]1 [Tozasertib (VX-680, MK-0457)] | 0.9265
26 | CN(C[C@@H]1COCCO1)S(=O)(=O)Nc1ccc2ccc3ncc(-c4cnn(C)c4)cc3c(=O)c2c1 [MK-2461] | 0.09192
27 | Cc1cc(C(C)Nc2ccccc2)c2nc(N3CCOCC3)cc(=O)n2c1 (stereo not shown) [TGX-221] | −0.3415
28 | 10058-F4 | 0.2472

Row | Compound | log2fc
29 | Cc1ccc(Nc2nccc(N(C)c3ccc4c(C)n(C)nc4c3)n2)cc1S(N)(=O)=O.Cl [Pazopanib HCl (GW786034 HCl)] | 0.1817
30 | C=CC(=O)Nc1cccc(Nc2nc(Nc3ccc(NC4CN(CCF)C4)cc3OC)ncc2C(F)(F)F)c1 [CNX-2006] | 0.1218
31 | O=C(NOCC(O)CO)c1cc(Br)c(F)c(F)c1Nc1ccc(I)cc1F (stereo not shown) [PD318088] | 0.4184
32 | Oc1ccc2ccccc2c1SSc1c(O)ccc2ccccc12 [IPA-3] | 0.5168
33 | COCCNCc1ccc(-c2cc3nccc(Oc4ccc(NC(=S)NC(=O)Cc5ccc(F)cc5)cc4F)c3s2)nc1 [MGCD-265] | 0.4311
34 | Cn1sc(=O)n(Cc2ccccc2)c1=O [TDZD-8] | 0.1552
35 | Nc1ccc(C(=O)Nc2cccc(-c3nc(N4CCOCC4)c4oc5ncccc5c4n3)c2)cn1 [YM201636] | −0.5268
36 | Cc1cc(F)c(Nc2ncnc3cc(OCc4ccccc4)ccc23)cc1O.Cl [ZM 323881 HCl] | 0.1765
37 | CN1CCC(CNc2ccc3ncc(-c4cccc(OC(F)(F)F)c4)n3n2)CC1 [SGI-1776 free base] | −0.0254
38 | CO[C@H]1C[C@@H]2CC[C@@H](C)[C@@](O)(O2)C(=O)C(=O)N2CCCC[C@H]2C(=O)O[C@H]([C@H](C)C[C@@H]2CC[C@@H](OCCO)[C@H](OC)C2)CC(=O)[C@H](C)/C=C(\C)[C@@H](O)[C@@H](OC)C(=O)[C@H](C)C[C@H](C)/C=C/C=C/C=C/1C [Everolimus (RAD001)] | −1.364
39 | CO[C@@H](C(=O)N1Cc2[nH]nc(NC(=O)c3ccc(N4CCN(C)CC4)cc3)c2C1)c1ccccc1 [Danusertib (PHA-739358)] | −0.1537
40 | Cn1ncc(Cl)c1-c1cc(C(=O)N[C@H](CN)Cc2ccc(F)c(F)c2)oc1Cl [Uprosertib (GSK2141795)] | −1.387
41 | C[C@]1(O)C[C@@H](c2nc(-c3ccc4ccc(-c5ccccc5)nc4c3)c3c(N)nccn32)C1 [Linsitinib (OSI-906)] | 0.08978
42 | COc1cc2ncnc(Oc3ccc(CC(=O)Nc4cnn(C(C)C)c4)cc3)c2cc1OC [AZD2932] | 0.4428
43 | COc1ccc(CNC(=O)Nc2ncc([N+](=O)[O-])s2)cc1 [AR-A014418] | 0.1293
44 | CS(=O)(=O)N1CCN(Cc2cc3nc(-c4cccc5[nH]ncc45)nc(N4CCOCC4)c3s2)CC1 [Pictilisib (GDC-0941)] | −1.17
45 | Nc1nc(N)c(N=O)c(OCC2CCCCC2)n1 [NU6027] | −0.2463
46 | CS(=O)(=O)N1CCc2c(-c3cnc(N)nc3)nc(N3CCOCC3)nc21 [CH5132799] | −1.044
47 | Cc1cc(NC(=O)c2cccc(NC(=O)/C=C/CN(C)C)c2)ccc1Nc1nccc(-c2cccnc2)n1 [JNK-IN-8] | 0.5696
48 | O=C(Nc1cc(C(F)(F)F)cc(C(F)(F)F)c1)c1cc(Cl)ccc1O [IMD 0354] | 0.2086
49 | Cc1[nH]c(/C=C2\C(=O)Nc3ccc(S(=O)(=O)N(C)c4cccc(Cl)c4)cc32)c(C)c1C(=O)N1CCN(C)CC1 [SU11274] | 0.1013
50 | COc1cccc2cc(-c3nc([C@H]4CC[C@H](C(=O)O)CC4)n4ncnc(N)c34)[nH]c12 [OSI-027] | −1.494
51 | Cc1nc(Nc2n[nH]c3c2CN(C(=O)N[C@H](CN(C)C)c2ccccc2)C3(C)C)c2sccc2n1 [PF-3758309] | 0.8283
52 | CN1CCN(c2ccc(Nc3cc(-c4cccc(-n5ccc6cc(C7CC7)cc(F)c6c5=O)c4CO)cn(C)c3=O)nc2)CC1 [RN486] | 0.08695
53 | Nc1cc(C(F)(F)F)c(-c2cc(N3CCOCC3)nc(N3CCOCC3)n2)cn1 [Buparlisib (BKM120, NVP-BKM120)] | −1.183
54 | COCCOc1ccc2c(c1)ncn2-c1ccc2cccc(N3CCC(N)CC3)c2n1 [CP-673451] | 0.4234
55 | NC(=O)c1ccc(N(C(N)=O)c2c(F)cccc2F)nc1-c1ccc(F)cc1F [VX-702] | −0.1168
